Residues, ends and D or L forms follow the SMILES beside them. *: point of attachment. X5 = 4‑(N-piperazino)phenyl‑bis(4-dimethylaminophenyl)carbenium, CN(C)c1ccc([C+](c2ccc(N(C)C)cc2)c2ccc(N3CCN(*)CC3)cc2)cc1; X9 = CN(C)c1ccc([C+](c2ccc(N(C)C)cc2)c2ccc(N3CCN(*)CC3)cc2)cc1
Tests used:
elastase = assay: Treatment with elastase, released dye fragment found by MS-analysis (synthesis examples); format: biochemical; conditions: elastase species not stated
[1] = Color change of allyl sulfophthalein dyes with pH, base or ammonia; format: physicochemical
MPO = target: T1, MPO (Homo sapiens, UniProt P05164); assay: Reaction of methoxy aniline derivative as substrate of MPO; format: biochemical
T1 sequence (P05164 49-745): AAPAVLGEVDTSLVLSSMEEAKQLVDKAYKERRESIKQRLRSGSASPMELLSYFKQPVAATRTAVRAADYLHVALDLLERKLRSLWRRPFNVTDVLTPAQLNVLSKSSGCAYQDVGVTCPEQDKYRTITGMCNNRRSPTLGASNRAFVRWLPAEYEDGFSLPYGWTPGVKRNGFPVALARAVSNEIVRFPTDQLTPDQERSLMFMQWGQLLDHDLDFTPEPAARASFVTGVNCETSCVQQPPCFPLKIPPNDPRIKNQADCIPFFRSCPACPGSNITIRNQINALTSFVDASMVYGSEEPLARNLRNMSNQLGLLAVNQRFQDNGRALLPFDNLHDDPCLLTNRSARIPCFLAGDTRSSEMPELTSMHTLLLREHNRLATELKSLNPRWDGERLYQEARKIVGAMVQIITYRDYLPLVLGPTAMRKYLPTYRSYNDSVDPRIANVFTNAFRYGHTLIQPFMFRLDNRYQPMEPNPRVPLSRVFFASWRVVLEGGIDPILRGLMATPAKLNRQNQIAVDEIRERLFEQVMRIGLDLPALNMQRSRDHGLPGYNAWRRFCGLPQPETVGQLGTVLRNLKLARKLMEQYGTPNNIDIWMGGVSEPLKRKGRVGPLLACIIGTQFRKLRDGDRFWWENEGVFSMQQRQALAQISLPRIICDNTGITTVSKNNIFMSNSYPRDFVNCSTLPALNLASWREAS
Excerpt: The ideal ratio by mass is circa 2:8 aniline: product of example 10. The most efficient reaction occurs when the divalent anion is sulphuric acid, however, disulfonic substituted aromatic systems and phosphoric acid can also be used with diminished rate. HC1 provides only limited reaction. On reaction, one of the products of MPO oxidation appears to be the dimer of the two aniline components (see FIG. 13).

[2] = target: pancreatic porcine elastase (Sus scrofa, UniProt P00772); assay: Enzyme hydrolysis of substrates by pancreatic porcine elastase, cleavage products by ion trap MS; conditions: mass peak at m/z=484
Description: (§1) Appearance of the assay mixture was either a clear solution, a suspension or a gel, depending on the properties of the enzyme substrate. Incubation was performed at 37° C. After 3 and 20 h, 10 μL samples were taken and the enzyme was denatured by addition of 10 μL MeOH to each sample. After mixing and incubation at −20° C. for 20 min the samples were centrifuged at 13.000 rpm for 10 min. Each assay included a control without enzyme, containing 1 mg/mL to 5 mg/mL substrate and analysis was performed in the same way and in parallel to the enzyme-containing assays. The supernatant after MeOH precipitation was analyzed via ion trap MS, either [M+H]+ or [M−H]−, depending on the properties of the molecule and the expected cleavage products.

[3] = target: T2, human elastase from leucocytes (Homo sapiens, UniProt P08246); assay: Enzyme hydrolysis of substrates by human elastase from leucocytes, cleavage products by ion trap MS; conditions: mass peak at m/z=484
T2 sequence (P08246 30-267): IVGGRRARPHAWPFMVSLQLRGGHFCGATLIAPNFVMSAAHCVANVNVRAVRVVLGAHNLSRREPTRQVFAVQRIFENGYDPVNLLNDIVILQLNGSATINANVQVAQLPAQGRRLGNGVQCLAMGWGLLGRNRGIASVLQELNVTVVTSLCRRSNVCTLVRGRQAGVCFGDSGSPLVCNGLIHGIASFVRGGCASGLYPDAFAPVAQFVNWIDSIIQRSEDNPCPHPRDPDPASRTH
Description: as §1

pancreatic porcine elastase, sequence (P00772 27-266): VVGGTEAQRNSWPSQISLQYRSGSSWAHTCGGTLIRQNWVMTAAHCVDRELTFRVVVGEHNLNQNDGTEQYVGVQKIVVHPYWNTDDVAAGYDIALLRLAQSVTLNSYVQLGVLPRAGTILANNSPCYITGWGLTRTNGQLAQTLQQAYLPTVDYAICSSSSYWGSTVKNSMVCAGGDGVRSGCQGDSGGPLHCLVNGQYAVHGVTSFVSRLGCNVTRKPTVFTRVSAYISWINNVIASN

Row | Molecule | release of dye fragment on treatment with elastase (elastase) | color change with pH / base / ammonia [1] | other results
1 | Fmoc-AAPF-aminoethyl-(Remazol Black B)-(N′-acetyl)-ethylamide [Example 53] | yield the mono-acetylated-Remazol Black B-amino derivative | – | –
2 | C-Allyl Chlorophenol Red [Example 96] | – | changed color when treated with base to deep violet | –
3 | CCCCCCCCCCCCC(O)CNc1cc(OC)c(NC(=O)c2ccccc2)cc1OC (racemic) [Example 10, N-(1-[2-Hydroxy]Tetradecanyl) Fast Blue RR (N-4-(1,3-Dimethoxy-2-N-Benzoylamidophenyl)-N′-Rac-(2-Hydroxy-n-Tetradecyl)-Amine)] | – | – | reaction as substrate of MPO (MPO): can be a direct substrate of MPO
4 | CC(N)C(=O)NC(C)C(=O)N1CCCC1C(=O)NC(C(=O)NC(C)C(=O)N1CCN(c2ccc([C+](c3ccc(N(C)C)cc3)c3ccc(N(C)C)cc3)cc2)CC1)C(C)C (stereo not drawn) [Example 71, 4-([4-{H-Ala-Ala-Pro-Val-Ala}[SEQ ID NO: 28]amido N-piperazino]phenyl)-bis-(4-dimethyl-aminophenyl)-carbenium ion] (H-AAPVA-X9; configuration not given here) | released A-CV | – | –
5 | CMC 9M31F-AAPF-RBB [Example 55] | release of the dye | – | –
6 | C-Allyl Bromophenol Red [Example 97] | – | color changed with ammonia to violet | –
7 | CMC 9M31F-AAPFA-RBB [Example 54] | release of the dye | – | –
8 | 4-([4-{H-Ala-Ala-Pro-Val-Ala}amido N-piperazino]phenyl)-bis-(4-dimethyl-aminophenyl)-carbenium ion polyacrylamide (H-AAPVA-X5; also: polyacrylamide) [Example 71e] | – | – | release of A-CV on treatment with porcine elastase [2]: releases A-CV; release of A-CV on treatment with human elastase [3]: releases A-CV
9 | C=CCOc1ccc(C2(c3ccc(O)c(Cl)c3)OS(=O)(=O)c3ccccc32)cc1Cl (centres unmarked) [Example 95, O-Allyl Chlorophenol Red] | – | no longer changed color with pH | –
10 | Bis-(4-dimethylaminophenyl)-(4-[4-N-{6-N-valinoyl)aminohexanoyl}]piperazinophenyl)-carbenium ion [Example 72] | releases no Ahx-CV | – | –

From patent US12265082B2, “Detecting microbial infection in wounds” (SYNOVO GMBH, priority 2016, dated 2025)
